Results taken from ChEMBL document CHEMBL4414672, “Synthesis of certain benzothieno[3,2-d]pyrimidine derivatives as a selective SIRT2 inhibitors” (Eur J Med Chem, 2020).

Experiments:
Format in all cases: functional
CCRF-CEM = assay: Growth inhibition of human CCRF-CEM cells at 10^-5 M incubated for 48 hrs by sulforhodamine B assay; conditions: read-out: GI
NCI-H460 = assay: Growth inhibition of human NCI-H460 cells at 10^-5 M incubated for 48 hrs by sulforhodamine B assay; conditions: NCI-H460, 48 h, read-out: GI
MCF7 = assay: Growth inhibition of human MCF7 cells at 10^-5 M incubated for 48 hrs by sulforhodamine B assay; conditions: MCF7, 48 h, read-out: GI
OVCAR-5 = assay: Growth inhibition of human OVCAR5 cells at 10^-5 M incubated for 48 hrs by sulforhodamine B assay; conditions: OVCAR-5, 48 h, read-out: GI
SK-MEL-5 = assay: Growth inhibition of human SK-MEL-5 cells at 10^-5 M incubated for 48 hrs by sulforhodamine B assay; conditions: SK-MEL-5, 48 h, read-out: GI
MDA-MB-468 = assay: Growth inhibition of human MDA-MB-468 cells at 10^-5 M incubated for 48 hrs by sulforhodamine B assay; conditions: MDA-MB-468, 48 h, read-out: GI
SK-MEL-28 = assay: Growth inhibition of human SK-MEL-28 cells at 10^-5 M incubated for 48 hrs by sulforhodamine B assay; conditions: SK-MEL-28, 48 h, read-out: GI
MDA-MB-435 = assay: Growth inhibition of human MDA-MB-435 cells at 10^-5 M incubated for 48 hrs by sulforhodamine B assay; conditions: MDA-MB-435, 48 h, read-out: GI
HL-60(TB) = assay: Growth inhibition of human HL-60(TB) cells at 10^-5 M incubated for 48 hrs by sulforhodamine B assay; conditions: HL-60, 48 h, read-out: GI
NCI-H522 = assay: Growth inhibition of human NCI-H522 cells at 10^-5 M incubated for 48 hrs by sulforhodamine B assay; conditions: NCI-H522, 48 h, read-out: GI
A549 = assay: Growth inhibition of human A549/ATCC cells at 10^-5 M incubated for 48 hrs by sulforhodamine B assay; conditions: A549, 48 h, read-out: GI
COLO 205 = assay: Growth inhibition of human COLO205 cells at 10^-5 M incubated for 48 hrs by sulforhodamine B assay; conditions: COLO 205, 48 h, read-out: GI
NCI-H226 = assay: Growth inhibition of human NCI-H226 cells at 10^-5 M incubated for 48 hrs by sulforhodamine B assay; conditions: NCI-H226, 48 h, read-out: GI
DU-145 = assay: Growth inhibition of human DU145 cells at 10^-5 M incubated for 48 hrs by sulforhodamine B assay; conditions: DU-145, 48 h, read-out: GI
KM12 = assay: Growth inhibition of human KM12 cells at 10^-5 M incubated for 48 hrs by sulforhodamine B assay; conditions: KM12, 48 h, read-out: GI
BT-549 = assay: Growth inhibition of human BT549 cells at 10^-5 M incubated for 48 hrs by sulforhodamine B assay; conditions: BT-549, 48 h, read-out: GI
HCC 2998 = assay: Growth inhibition of human HCC2998 cells at 10^-5 M incubated for 48 hrs by sulforhodamine B assay; conditions: HCC 2998, 48 h, read-out: GI
HOP-62 = assay: Growth inhibition of human HOP62 cells at 10^-5 M incubated for 48 hrs by sulforhodamine B assay; conditions: HOP-62, 48 h, read-out: GI
MOLT-4 = assay: Growth inhibition of human MOLT4 cells at 10^-5 M incubated for 48 hrs by sulforhodamine B assay; conditions: MOLT-4, 48 h, read-out: GI
ACHN = assay: Growth inhibition of human ACHN cells at 10^-5 M incubated for 48 hrs by sulforhodamine B assay; conditions: read-out: GI
SW-620 = assay: Growth inhibition of human SW620 cells at 10^-5 M incubated for 48 hrs by sulforhodamine B assay; conditions: SW-620, 48 h, read-out: GI
SNB-75 = assay: Growth inhibition of human SNB75 cells at 10^-5 M incubated for 48 hrs by sulforhodamine B assay; conditions: SNB-75, 48 h, read-out: GI
SF-295 = assay: Growth inhibition of human SF295 cells at 10^-5 M incubated for 48 hrs by sulforhodamine B assay; conditions: SF-295, 48 h, read-out: GI
HCT-116 = assay: Growth inhibition of human HCT116 cells at 10^-5 M incubated for 48 hrs by sulforhodamine B assay; conditions: HCT-116, 48 h, read-out: GI
HT-29 = assay: Growth inhibition of human HT-29 cells at 10^-5 M incubated for 48 hrs by sulforhodamine B assay; conditions: HT-29, 48 h, read-out: GI
SF-268 = assay: Growth inhibition of human SF268 cells at 10^-5 M incubated for 48 hrs by sulforhodamine B assay; conditions: SF-268, 48 h, read-out: GI
UACC-257 = assay: Growth inhibition of human UACC257 cells at 10^-5 M incubated for 48 hrs by sulforhodamine B assay; conditions: UACC-257, 48 h, read-out: GI
UO-31 = assay: Growth inhibition of human UO31 cells at 10^-5 M incubated for 48 hrs by sulforhodamine B assay; conditions: UO-31, 48 h, read-out: GI
LOX IMVI = assay: Growth inhibition of human LOXIMVI cells at 10^-5 M incubated for 48 hrs by sulforhodamine B assay; conditions: read-out: GI
HCT-15 = assay: Growth inhibition of human HCT15 cells at 10^-5 M incubated for 48 hrs by sulforhodamine B assay; conditions: HCT-15, 48 h, read-out: GI
IGROV-1 = assay: Growth inhibition of human IGROV1 cells at 10^-5 M incubated for 48 hrs by sulforhodamine B assay; conditions: IGROV-1, 48 h, read-out: GI
Hs-578T = assay: Growth inhibition of human Hs 578T cells at 10^-5 M incubated for 48 hrs by sulforhodamine B assay; conditions: read-out: GI
NCI/ADR-RES = assay: Growth inhibition of human NCI/ADR-RES cells at 10^-5 M incubated for 48 hrs by sulforhodamine B assay; conditions: read-out: GI
EKVX = assay: Growth inhibition of human EKVX cells at 10^-5 M incubated for 48 hrs by sulforhodamine B assay; conditions: read-out: GI
OVCAR-4 = assay: Growth inhibition of human OVCAR4 cells at 10^-5 M incubated for 48 hrs by sulforhodamine B assay; conditions: OVCAR-4, 48 h, read-out: GI
786-0 = assay: Growth inhibition of human 786-0 cells at 10^-5 M incubated for 48 hrs by sulforhodamine B assay; conditions: 786-0, 48 h, read-out: GI
U-251 = assay: Growth inhibition of human U251 cells at 10^-5 M incubated for 48 hrs by sulforhodamine B assay; conditions: U-251, 48 h, read-out: GI
CAKI-1 = assay: Growth inhibition of human Caki1 cells at 10^-5 M incubated for 48 hrs by sulforhodamine B assay; conditions: CAKI-1, 48 h, read-out: GI

N#Cc1cnn(C2=Nc3c(sc4ccc(Cl)cc34)C(c3cccc([N+](=O)[O-])c3)N2)c1N (stereo not drawn)
inhibition of growth at 10 µM (CCRF-CEM): -11.9% | inhibition of growth at 10 µM (NCI-H460): -1.07% | inhibition of growth at 10 µM (MCF7): 29.9% | inhibition of growth at 10 µM (OVCAR-5): 4.37% | inhibition of growth at 10 µM (SK-MEL-5): 4.88% | inhibition of growth at 10 µM (MDA-MB-468): 3.7% | inhibition of growth at 10 µM (SK-MEL-28): -13.6% | inhibition of growth at 10 µM (MDA-MB-435): -7.15% | inhibition of growth at 10 µM (HL-60(TB)): -5.54% | inhibition of growth at 10 µM (NCI-H522): 4.1% | inhibition of growth at 10 µM (A549): -3.91% | inhibition of growth at 10 µM (COLO 205): -3.42% | inhibition of growth at 10 µM (NCI-H226): 19.2% | inhibition of growth at 10 µM (DU-145): -10.5% | inhibition of growth at 10 µM (KM12): 3.84% | inhibition of growth at 10 µM (BT-549): -5.52% | inhibition of growth at 10 µM (HCC 2998): -3.42% | inhibition of growth at 10 µM (HOP-62): 5.61% | inhibition of growth at 10 µM (MOLT-4): 8.24% | inhibition of growth at 10 µM (ACHN): 15.2% | inhibition of growth at 10 µM (SW-620): -4.05% | inhibition of growth at 10 µM (SNB-75): 11.5% | inhibition of growth at 10 µM (SF-295): -2.52% | inhibition of growth at 10 µM (HCT-116): 5.22% | inhibition of growth at 10 µM (HT-29): -17.9% | inhibition of growth at 10 µM (SF-268): 5.36% | inhibition of growth at 10 µM (UACC-257): -3.69% | inhibition of growth at 10 µM (UO-31): 41.2% | inhibition of growth at 10 µM (LOX IMVI): 12.5% | inhibition of growth at 10 µM (HCT-15): -4.58% | inhibition of growth at 10 µM (IGROV-1): 23.1% | inhibition of growth at 10 µM (Hs-578T): 3.32% | inhibition of growth at 10 µM (NCI/ADR-RES): 5.59% | inhibition of growth at 10 µM (EKVX): 20.9% | inhibition of growth at 10 µM (OVCAR-4): -1.38% | inhibition of growth at 10 µM (786-0): 1% | inhibition of growth at 10 µM (U-251): -11.2% | inhibition of growth at 10 µM (CAKI-1): -3.28%
